{"source": "patent US20060269594A1", "about": "“Liposomal antineoplastic drugs and uses thereof” (Inex Pharmaceuticals Corporation, priority 2000, published 2006)", "key": {"[1]": {"assay": "Pharmacokinetic and in vivo leakage studies", "conditions": "plasma, ICR mice; for AUC / Cmax / clearance: mouse, iv", "method": "5. Pharmacokinetic and in vivo leakage studies. […] Two different drug-to-lipid ratios, i.e., 0.10 (w/w) and 0.02 (w/w), were used to examine the influence of drug-to-lipid ratio and lipid dose on drug leakage and PK behavior. Encapsulated topotecan was administered at 1 mg/kg (10 or 50 mg/kg lipid) and 5 mg/kg topotecan (50 mg/kg lipid). […] Total topotecan in blood was determined by a fluorescence assay preceded by precipitation of plasma proteins. Topotecan was quantified by spectrofluorimetry at an excitation (2.5 nm slit width) and emission wavelength (2.5 nm slit width) of 380 and 518 nm, respectively. Lipid levels in plasma were determined by liquid scintillation counting of the [^3H]-CHE label."}, "[2]": {"assay": "Myelosuppression and neutropenia studies (blood CBC and differential)", "assay_type": "in vivo, ICR mice", "conditions": "10 mg/kg i.v., day 3", "quoted_text": "Myelosuppression and neutropenia studies. […] Empty vesicles were administered as a control. CBC and differential analysis was performed at Central Labs for Veterinarians (Langley, BC) to quantify cellular levels, ratios and morphology."}, "[3]": {"test_system": "MX-1 human breast carcinoma", "assay": "MX-1 human breast carcinoma xenograft (s.c.), efficacy and toxicity", "assay_type": "in vivo, nude mice", "quoted_text": "Tumor Models. […] Human MX-1 and LX-1 cell lines were obtained from the DCTD Tumor Repository in Frederick, Md. These cell lines were received as tumor fragments and were propagated in NCr nude mice by serial transplantation of 3×3 mm fragments. Experiments were not initiated until the cell lines had been through 3 passages in nude mice and the tumor lines were restarted when the passage number reached 10.\nEfficacy Studies. […] For the MX-1 and LX-1 tumor models, tumor volume was determined by repeated perpendicular measurements of tumor dimensions and using the formula: Volume (mm^3)=(L×W^2)/2"}, "[4]": {"test_system": "LX-1 human lung carcinoma", "assay": "LX-1 human lung carcinoma xenograft (s.c.), efficacy and toxicity", "assay_type": "in vivo, nude mice", "conditions": "LX-1, single dose; free at evaluated doses <30 mg/kg", "text": "In the above formula, MTD is the maximum tolerated dose, defined as that dose that causes a mean weight loss of 20% in a group of animals; and MED is the minimal effective dose, defined as the dose that produces an optimal % T/C value of ≦40 in the solid tumor models or an % ILS of 50±10% in the survival models."}, "[5]": {"conditions": "cited from earlier work"}, "[6]": {"conditions": "MX-1 s.c., single i.v. dose 5 mg/kg"}}, "note": "Where two headings read alike, the source gives them in different places.", "data": [{"smiles": "CC[C@@]1(O)C(=O)OCc2c1cc1n(c2=O)Cc2cc3c(CN(C)C)c(O)ccc3nc2-1", "note": "[Free, 9-dimethylaminomethyl-10-hydroxy-camptothecin]", "values": [{"measurement": "AUC", "setting": "[1]; 1 mg/kg i.v.", "result": 1970, "unit": "ng·h/mL"}, {"measurement": "Cmax", "setting": "[1]; 1 mg/kg i.v.", "result": 750, "unit": "ng/mL"}, {"measurement": "clearance", "setting": "[1]; 1 mg/kg i.v.", "result": 0.232, "unit": "mL/min"}, {"measurement": "AUC", "setting": "[1]; 5 mg/kg i.v.", "result": 2770, "unit": "ng·h/mL"}, {"measurement": "Cmax", "setting": "[1]; 5 mg/kg i.v.", "result": 2170, "unit": "ng/mL"}, {"measurement": "clearance", "setting": "[1]; 5 mg/kg i.v.", "result": 0.827, "unit": "mL/min"}, {"measurement": "α1/2", "setting": "[1]; 1 mg/kg i.v.", "result": 0.14, "unit": "h"}, {"measurement": "α1/2", "setting": "[1]; 5 mg/kg i.v.", "result": 0.26, "unit": "h"}, {"measurement": "differences in neutrophil, WBC and lymphocyte parameters", "setting": "[2]", "result": "No significant differences"}, {"measurement": "anti-tumor activity", "setting": "[3]; MX-1, q7dx3, 5 or 10 mg/kg/dose", "result": "little activity"}, {"measurement": "% T/C (optimal, following final treatment)", "setting": "[3]; MX-1 s.c., q7dx3, 10 mg/kg/dose i.v.", "result": 61, "unit": "%"}, {"measurement": "% T/C (optimal, following final treatment)", "setting": "[3]; [6]", "result": 78, "unit": "%"}, {"measurement": "T − C (tumor growth delay to 500 mm^3)", "setting": "[3]; [6]", "result": 0.2, "unit": "days"}, {"measurement": "% T/C (optimal, following final treatment)", "setting": "[3]; MX-1 s.c., single i.v. dose 40 mg/kg", "result": 24, "unit": "%"}, {"measurement": "anti-tumor activity in initial single dose studies", "setting": "[4]", "result": "inactive"}, {"measurement": "LD10", "setting": "[5]; qdx5 schedule, converted", "result": "~4.7", "unit": "mg/kg/dose"}, {"measurement": "LD10", "setting": "[5]; single intravenous infusion in mice (Hycamtin product monograph)", "result": 75, "unit": "mg/M^2"}, {"measurement": "LD10", "setting": "[5]; single intravenous infusion in mice, converted", "result": "~25", "unit": "mg/kg"}]}]}
